This is an account of results in ChEMBL document CHEMBL1201862, “PubChem BioAssay data set” (2004).

Holding throughout (experiment): NCI-60 cell line screen, 48 h
Experiment [1] relates to 786-0.
In experiment [2] the test system is ACHN.
Experiment [3] concerns CAKI-1.
Experiment [4] concerns EKVX.
For experiment [5], the system named is HCT-116.
Experiment [6] concerns HCT-15.
For experiment [7], the system named is Hs-578T.
Experiment [8] has as its system IGROV-1.
Experiment [9] has as its system KM12.
Experiment [10] relates to M14.
The test system of experiment [11] is MCF7.
Experiment [12] deals with MDA-MB-231.
For experiment [13], the system named is MDA-N.
Experiment [14] deals with Malme-3M.
For experiment [15], the system named is NCI/ADR-RES.
Experiment [16] has as its system PC-3.
Experiment [17] deals with TK-10.
Experiment [18] has as its system U-251.
Experiment [19] relates to UO-31.
The subject of experiment [20] is SF-539.

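Protocol summary: plate cells (96-well), add compound at 5 concentrations, incubate 48 h, interpolate endpoints linearly. GI50 is the concentration that inhibits growth by half.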 The source made the active and inactive calls. No stated cut-off is given here; in the data, active = GI50 up to about 1.1 µM and inactive = higher.

For `Cn1cnc([N+](=O)[O-])c1Sc1nc(N)nc2c1ncn2Cc1ccccc1`, the GI50 is 19 µM (inactive) in [1]; 15.3 µM (inactive) in experiment [2]; 13.3 µM (inactive) in experiment [3]; 11.5 µM (inactive) in [4]; 20.7 µM (inactive) in experiment [5]; 18 µM in experiment [6]. The GI50 is 20.5 µM (inactive) in [7]; 14.5 µM (inactive) in experiment [8]; 30 µM (inactive) in [9]; 22.9 µM (inactive) in experiment [10]; 35.4 µM (inactive) in experiment [11]; 19.7 µM (inactive) in experiment [12]. The GI50 in [13] was 19.4 µM (inactive); in experiment [14], 13.2 µM (inactive); in [15], 51.9 µM (inactive); in experiment [16], 11.6 µM (inactive); in [17] it was 15.8 µM (inactive); in experiment [18] it was 21.8 µM (inactive). Moreover, the GI50 in experiment [19] was 15.5 µM (inactive).
As to `N/C(=N\Nc1ccc(Cl)cc1)c1cnccn1`, the GI50 in [1] is 68.7 µM (inactive); in [2], > 100 µM (inactive); in [3] it was > 100 µM (inactive); in experiment [4] it was 81.7 µM (inactive); in experiment [5], 22.4 µM (inactive); in experiment [6] it was 21.4 µM. The GI50 in experiment [7] is > 100 µM (inactive); in [8], > 100 µM (inactive); in experiment [9] it was > 100 µM (inactive); in experiment [10], 6.64 µM (inactive); in experiment [11], 38.5 µM (inactive); in experiment [12], > 100 µM (inactive). Besides, the GI50 in [13] was 10.4 µM (inactive); in experiment [14], 95.9 µM (inactive); in [15], 44 µM (inactive); in [16] it was 54.7 µM (inactive); in experiment [17], > 100 µM (inactive); in experiment [18], > 100 µM (inactive). Further, the GI50 in [19] was 50.7 µM (inactive).
As for `COc1ccc(C(=O)N2CCN(c3ccc4[nH]c(=O)oc4c3)CC2)cc1`, the GI50 in [1] was > 100 µM (inactive); in experiment [2], 69.8 µM (inactive); in experiment [4] it was 78.7 µM (inactive); in experiment [5], > 100 µM (inactive); in [6], above 100 µM; in [7] it was 58.5 µM (inactive). Besides, the GI50 in [8] was 99.1 µM (inactive); in experiment [9], > 100 µM (inactive); in [10], > 100 µM (inactive); in [11] it was > 100 µM (inactive); in experiment [12] it was > 100 µM (inactive); in experiment [13], > 100 µM (inactive). The GI50 in experiment [14] was 48.5 µM (inactive); in [15], > 100 µM (inactive); in [16], > 100 µM (inactive); in [20] it was > 100 µM (inactive); in experiment [17], > 100 µM (inactive); in [18] it was > 100 µM (inactive). Moreover, in experiment [19], the GI50 is > 100 µM (inactive).
With `COc1nc(SC)nc2c1C(O)n1c(nc3ccccc31)S2` (stereo not drawn), the GI50 in [1] was 6.65 µM (inactive); in experiment [2], 18.4 µM (inactive); in [3] it was 41.3 µM (inactive); in experiment [4], 36.1 µM (inactive); in [5], 11.5 µM (inactive); in experiment [6], 33.5 µM. Moreover, the GI50 in [7] was 16 µM (inactive); in experiment [8], 40.9 µM (inactive); in experiment [9], 25.4 µM (inactive); in [10], 60.4 µM (inactive); in experiment [11] it was 1.84 µM (inactive); in experiment [12], 14.4 µM (inactive). The GI50 in experiment [13] was 40.4 µM (inactive); in experiment [14], 40 µM (inactive); in experiment [15], 10.5 µM (inactive); in experiment [16], 19.3 µM (inactive); in experiment [17] it was 23.7 µM (inactive); in [18], 10.6 µM (inactive). Besides, the GI50 in experiment [19] was 3.08 µM (inactive).
Take `Nc1ncnc2c1ncn2[C@@H]1C[C@@H]1CO`: the GI50 in [1] is > 100 µM (inactive); in experiment [2], > 100 µM (inactive); in [4], > 100 µM (inactive); in [5], > 100 µM (inactive); in [6], above 100 µM; in experiment [7], > 100 µM (inactive). Besides, the GI50 in experiment [9], in [11], in experiment [12], in experiment [13], in experiment [14] and in [15] was > 100 µM (inactive) each time. Also, the GI50 in [16], in [20], in experiment [18] and in experiment [19] was > 100 µM (inactive) in each case.
`COc1ccc(C(=O)N(Cc2cccnc2)C(=S)N(Cc2cccnc2)C(=O)c2ccc(OC)cc2)cc1`: the GI50 in experiment [1] is > 100 µM (inactive); in experiment [2], > 100 µM (inactive); in [3] it was 86.9 µM (inactive); in experiment [4], > 100 µM (inactive); in experiment [5], > 100 µM (inactive); in experiment [6], above 100 µM. Also, the GI50 was > 100 µM (inactive) in [7]; 70.8 µM (inactive) in experiment [9]; > 100 µM (inactive) in experiment [10]; > 100 µM (inactive) in experiment [11]; > 100 µM (inactive) in experiment [12]; > 100 µM (inactive) in experiment [13]. For the same compound, the GI50 in [14] was > 100 µM (inactive); in [15] it was 75.2 µM (inactive); in experiment [16] it was > 100 µM (inactive); in experiment [20], > 100 µM (inactive); in [17], > 100 µM (inactive); in experiment [18] it was 55.2 µM (inactive).
For the compound `CCn1c(=O)ccc2ccc(N(CCO)CCO)nc21`, the GI50 was > 100 µM (inactive) in experiment [1]; > 100 µM (inactive) in [2]; > 100 µM (inactive) in experiment [3]; > 100 µM (inactive) in [4]; > 100 µM (inactive) in [5]; above 100 µM in [6]. For the same compound, the GI50 in experiment [7], in experiment [8], in [9], in experiment [10], in experiment [11] and in experiment [12] was > 100 µM (inactive) each time. Moreover, the GI50 in experiment [13], in [14], in experiment [15], in experiment [16], in [17] and in [18] was > 100 µM (inactive) in each case. For the same compound, in [19], the GI50 is > 100 µM (inactive).
Turning to `CCOC(=O)c1nnsc1NC(=O)Nc1ccc(Cc2ccc(NC(=O)Nc3snnc3C(=O)OCC)cc2)cc1`, the GI50 was 18.2 µM (inactive) in [1]; > 100 µM (inactive) in [2]; 41 µM (inactive) in experiment [3]; 85.3 µM (inactive) in experiment [4]; 30.8 µM (inactive) in [5]; above 100 µM in [6]. Moreover, the GI50 in experiment [7] was 69.5 µM (inactive); in experiment [8], 28.2 µM (inactive); in experiment [9], 55.1 µM (inactive); in experiment [10], > 100 µM (inactive); in experiment [11], 71.8 µM (inactive); in experiment [12], 28.2 µM (inactive). For the same compound, the GI50 in [13] was 69.3 µM (inactive); in [14] it was 37.2 µM (inactive); in [15] it was > 100 µM (inactive); in experiment [16], 66.4 µM (inactive); in [17], > 100 µM (inactive); in [18], 31.3 µM (inactive). Besides, the GI50 in experiment [19] was > 100 µM (inactive).
